Holding throughout (experiment): relative viability (nuclei count vs DMSO), 5 days (fraction); higher = more cells survive
Compound in assay [1]: C1CSC2=C(C(=O)N1)SC3=C2C=C(C=C3)O [kb NB 142-70] + CCNC(=O)c1noc(-c2cc(C(C)C)c(O)cc2O)c1-c1ccc(CN2CCOCC2)cc1 [Luminespib] (partner 0.01 µM)
In a few lines:
(§1)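 Lung cancer cell lines, seeded in 1536-well plates, were treated the following day by pin tool with a single drug or with five library-drug doses (not always all listed) in √10 steps on top of a fixed anchor-drug dose. Cells were fixed and nuclei stained in one step after 5 days, and nuclei were counted. Relative viability is the nuclei count for treated wells divided by that for vehicle wells, reported as medians of duplicate plates.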

Compound in assay [2]: NCC(=O)Nc1ccc(-n2nc(C(F)(F)F)cc2-c2ccc3c(ccc4ccccc43)c2)cc1 + Cc1cc(Nc2cc(N3CCN(C)CC3)nc(Sc3ccc(NC(=O)C4CC4)cc3)n2)n[nH]1 [Tozasertib] (partner 0.1 µM)
Summed up:
as §1

Compound in assay [3]: C1CSC2=C(C(=O)N1)SC3=C2C=C(C=C3)O [kb NB 142-70] + CS(=O)(=O)N1CCN(Cc2cc3nc(-c4cccc5[nH]ncc45)nc(N4CCOCC4)c3s2)CC1 [Pictilisib] (partner 1 µM)
In a few lines: as §1

Compound in the assay “kb NB 142-70 + Foretinib”: C1CSC2=C(C(=O)N1)SC3=C2C=C(C=C3)O [kb NB 142-70] + COc1cc2c(Oc3ccc(NC(=O)C4(C(=O)Nc5ccc(F)cc5)CC4)cc3F)ccnc2cc1OCCCN1CCOCC1 [Foretinib] (partner 0.25 µM)
Summed up:
as §1

Compound in assay [4]: NCC(=O)Nc1ccc(-n2nc(C(F)(F)F)cc2-c2ccc3c(ccc4ccccc43)c2)cc1 + C[C@]1(O)C[C@@H](c2nc(-c3ccc4ccc(-c5ccccc5)nc4c3)c3c(N)nccn32)C1 [Linsitinib] (partner 1 µM)
Summed up: as §1

On to HCC-15, for which the relative viability in assay [1] (first compound 0.1 µM) came to 0.195; in assay [1] (first compound 1 µM), 0.605; in assay [1] (first compound 3.162 µM) it was 0.393; in assay [2] (first compound 0.02 µM), 0.379; in assay [2] (first compound 0.06325 µM) it was 0.416; in assay [2] (first compound 0.2 µM), 0.39. The relative viability in assay [2] (first compound 0.6325 µM) stood at 0.489; in assay [2] (first compound 2 µM), 0.347; in assay [3] (first compound 0.1 µM), 0.746; in assay [3] (first compound 1 µM), 0.79; in assay [3] (first compound 3.162 µM), 0.56; in the assay with kb NB 142-70 + Foretinib (first compound 0.1 µM), 1.01. In addition, the relative viability with kb NB 142-70 + Foretinib (first compound 1 µM) is 1.13; with kb NB 142-70 + Foretinib (first compound 3.162 µM) it was 0.946; in assay [4] (first compound 0.02 µM) it was 0.865; in assay [4] (first compound 0.06325 µM) it was 0.871; in assay [4] (first compound 0.2 µM) it was 0.897; in assay [4] (first compound 0.6325 µM) it was 0.891. In addition, the relative viability in assay [4] (first compound 2 µM) was 0.944.

Consider COR-L23, for which the relative viability in assay [1] (first compound 0.1 µM) came out at 0.665; in assay [1] (first compound 1 µM) it was 0.524; in assay [1] (first compound 3.162 µM) it was 0.159; in assay [2] (first compound 0.02 µM), 0.208; in assay [2] (first compound 0.06325 µM), 0.213; in assay [2] (first compound 0.2 µM) it was 0.195. The relative viability in assay [2] (first compound 0.6325 µM) turned out to be 0.21; in assay [2] (first compound 2 µM) it was 0.136; in assay [3] (first compound 0.1 µM), 0.765; in assay [3] (first compound 1 µM), 0.807; in assay [3] (first compound 3.162 µM) it was 0.251; with kb NB 142-70 + Foretinib (first compound 0.1 µM) it was 1.06. For the same cell line, the relative viability with kb NB 142-70 + Foretinib (first compound 1 µM) is 1.04; with kb NB 142-70 + Foretinib (first compound 3.162 µM) it was 0.457; in assay [4] (first compound 0.02 µM), 0.989; in assay [4] (first compound 0.06325 µM) it was 0.927; in assay [4] (first compound 0.2 µM), 1.05; in assay [4] (first compound 0.6325 µM) it was 0.896. Also, the relative viability in assay [4] (first compound 2 µM) came out at 0.95.

Take NCI-H727: the relative viability in assay [1] (first compound 0.1 µM) is 0.226; in assay [1] (first compound 1 µM), 0.346; in assay [1] (first compound 3.162 µM) it was 0.42; in assay [2] (first compound 0.02 µM), 0.648; in assay [2] (first compound 0.06325 µM) it was 0.664; in assay [2] (first compound 0.2 µM), 0.588. Also, the relative viability came out at 0.502 in assay [2] (first compound 0.6325 µM); 0.711 in assay [2] (first compound 2 µM); 0.425 in assay [3] (first compound 0.1 µM); 0.469 in assay [3] (first compound 1 µM); 0.346 in assay [3] (first compound 3.162 µM); 1.06 with kb NB 142-70 + Foretinib (first compound 0.1 µM). Further, the relative viability with kb NB 142-70 + Foretinib (first compound 1 µM) was 0.969; with kb NB 142-70 + Foretinib (first compound 3.162 µM), 1.15; in assay [4] (first compound 0.02 µM), 0.297; in assay [4] (first compound 0.06325 µM), 0.275; in assay [4] (first compound 0.2 µM) it was 0.377; in assay [4] (first compound 0.6325 µM) it was 0.352. In assay [4] (first compound 2 µM), the relative viability came to 0.493.

On to NCI-H2087, for which the relative viability in assay [1] (first compound 0.1 µM) worked out at 0.183; in assay [1] (first compound 1 µM), 0.164; in assay [1] (first compound 3.162 µM) it was 0.116; in assay [2] (first compound 0.02 µM), 0.208; in assay [2] (first compound 0.06325 µM), 0.272; in assay [2] (first compound 0.2 µM), 0.21. The relative viability in assay [2] (first compound 0.6325 µM) is 0.26; in assay [2] (first compound 2 µM), 0.259; in assay [3] (first compound 0.1 µM) it was 0.905; in assay [3] (first compound 1 µM), 0.75; in assay [3] (first compound 3.162 µM), 0.576; in the assay with kb NB 142-70 + Foretinib (first compound 0.1 µM), 1.25. The relative viability with kb NB 142-70 + Foretinib (first compound 1 µM) came to 1.32; with kb NB 142-70 + Foretinib (first compound 3.162 µM), 0.968; in assay [4] (first compound 0.02 µM) it was 0.867; in assay [4] (first compound 0.06325 µM), 1.02; in assay [4] (first compound 0.2 µM), 1.03; in assay [4] (first compound 0.6325 µM), 1.1. The relative viability in assay [4] (first compound 2 µM) amounted to 0.988.

Take BEN: the relative viability in assay [1] (first compound 0.1 µM) is 0.412; in assay [1] (first compound 1 µM), 1.13; in assay [1] (first compound 3.162 µM), 0.281; in assay [2] (first compound 0.02 µM), 0.422; in assay [2] (first compound 0.06325 µM) it was 0.499; in assay [2] (first compound 0.2 µM), 0.461. Further, the relative viability was 0.464 in assay [2] (first compound 0.6325 µM); 0.572 in assay [2] (first compound 2 µM); 0.561 in assay [3] (first compound 0.1 µM); 0.527 in assay [3] (first compound 1 µM); 0.405 in assay [3] (first compound 3.162 µM); 0.535 with kb NB 142-70 + Foretinib (first compound 0.1 µM). For the same cell line, the relative viability with kb NB 142-70 + Foretinib (first compound 1 µM) amounted to 0.648; in the assay with kb NB 142-70 + Foretinib (first compound 3.162 µM), 0.486; in assay [4] (first compound 0.02 µM), 0.885; in assay [4] (first compound 0.06325 µM), 1.06; in assay [4] (first compound 0.2 µM), 0.923; in assay [4] (first compound 0.6325 µM) it was 0.861. In addition, the relative viability in assay [4] (first compound 2 µM) is 0.914.

Turning to LCLC-103H, the relative viability in assay [1] (first compound 0.1 µM) turned out to be 0.956; in assay [1] (first compound 1 µM), 0.997; in assay [1] (first compound 3.162 µM) it was 0.903; in assay [2] (first compound 0.02 µM) it was 0.416; in assay [2] (first compound 0.06325 µM) it was 0.477; in assay [2] (first compound 0.2 µM), 0.457. Also, the relative viability amounted to 0.471 in assay [2] (first compound 0.6325 µM); 0.448 in assay [2] (first compound 2 µM); 0.631 in assay [3] (first compound 0.1 µM); 0.652 in assay [3] (first compound 1 µM); 0.638 in assay [3] (first compound 3.162 µM); 0.715 with kb NB 142-70 + Foretinib (first compound 0.1 µM). Besides, the relative viability came out at 0.744 with kb NB 142-70 + Foretinib (first compound 1 µM); 0.815 in the assay with kb NB 142-70 + Foretinib (first compound 3.162 µM); 1.16 in assay [4] (first compound 0.02 µM); 0.997 in assay [4] (first compound 0.06325 µM); 1.12 in assay [4] (first compound 0.2 µM); 1.11 in assay [4] (first compound 0.6325 µM). In assay [4] (first compound 2 µM), the relative viability amounted to 0.978.

Take EKVX: the relative viability in assay [1] (first compound 0.1 µM) turned out to be 0.81; in assay [1] (first compound 1 µM) it was 0.857; in assay [1] (first compound 3.162 µM), 0.943; in assay [2] (first compound 0.02 µM), 0.443; in assay [2] (first compound 0.06325 µM), 0.374; in assay [2] (first compound 0.2 µM), 0.431. Besides, the relative viability in assay [2] (first compound 0.6325 µM) came out at 0.39; in assay [2] (first compound 2 µM), 0.386; in assay [3] (first compound 0.1 µM), 0.413; in assay [3] (first compound 1 µM), 0.465; in assay [3] (first compound 3.162 µM), 0.438; with kb NB 142-70 + Foretinib (first compound 0.1 µM), 0.834. Moreover, the relative viability in the assay with kb NB 142-70 + Foretinib (first compound 1 µM) was 0.903; with kb NB 142-70 + Foretinib (first compound 3.162 µM), 0.86; in assay [4] (first compound 0.02 µM), 1.04; in assay [4] (first compound 0.06325 µM), 1.06; in assay [4] (first compound 0.2 µM), 0.987; in assay [4] (first compound 0.6325 µM) it was 1.01. Moreover, the relative viability in assay [4] (first compound 2 µM) worked out at 1.11.

The values above are taken from the supplement of paper PMC10307832.
